The target of test [1] is Voltage-dependent L-type calcium channel subunit alpha-1C (Rattus norvegicus, UniProt P22002). The format is functional.
The target of test [2] is T1, Gastrin/cholecystokinin type B receptor (Homo sapiens, UniProt P32239).
T1 sequence (P32239 whole entry): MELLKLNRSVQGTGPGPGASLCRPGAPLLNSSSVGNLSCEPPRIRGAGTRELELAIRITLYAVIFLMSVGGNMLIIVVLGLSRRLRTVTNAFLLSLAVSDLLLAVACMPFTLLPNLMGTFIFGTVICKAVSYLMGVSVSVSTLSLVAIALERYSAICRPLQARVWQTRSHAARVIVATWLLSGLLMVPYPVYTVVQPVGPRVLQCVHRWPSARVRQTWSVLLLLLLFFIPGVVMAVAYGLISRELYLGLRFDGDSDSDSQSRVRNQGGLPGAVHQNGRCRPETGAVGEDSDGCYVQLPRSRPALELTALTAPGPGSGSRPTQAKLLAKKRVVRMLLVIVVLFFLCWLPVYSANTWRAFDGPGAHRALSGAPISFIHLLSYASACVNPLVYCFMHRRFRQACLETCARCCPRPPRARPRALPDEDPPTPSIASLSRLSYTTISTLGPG

In test [3] the target is T2, Thromboxane A2 receptor (Homo sapiens, UniProt P21731).
T2 sequence (P21731 whole entry): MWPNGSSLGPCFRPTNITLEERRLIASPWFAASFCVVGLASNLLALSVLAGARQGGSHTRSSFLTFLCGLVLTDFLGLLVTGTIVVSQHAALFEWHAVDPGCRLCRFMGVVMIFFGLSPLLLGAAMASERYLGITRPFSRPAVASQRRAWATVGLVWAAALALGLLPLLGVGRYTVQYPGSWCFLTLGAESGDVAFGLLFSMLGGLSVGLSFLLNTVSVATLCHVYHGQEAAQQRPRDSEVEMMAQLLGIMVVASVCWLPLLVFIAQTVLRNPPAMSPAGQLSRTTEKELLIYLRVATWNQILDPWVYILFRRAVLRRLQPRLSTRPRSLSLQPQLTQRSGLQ

Test [4] has as its target Glutamate receptor ionotropic, NMDA 1 (Rattus norvegicus, UniProt P35439).
The target in test [5] is Beta-2 adrenergic receptor (Homo sapiens, UniProt P07550).
The target in test [6] is Growth hormone secretagogue receptor type 1 (Homo sapiens, UniProt Q92847).
Test [7] deals with 5-hydroxytryptamine receptor 2B (Homo sapiens, UniProt P41595). The format is functional, cell-based.
The target of test [8] is Adenosine receptor A2a (Homo sapiens, UniProt P29274).
The target in test [9] is Delta-type opioid receptor (Homo sapiens, UniProt P41143).
Test [10] concerns the target T3, Estrogen receptor (Homo sapiens, UniProt P03372).
T3 sequence (P03372 whole entry): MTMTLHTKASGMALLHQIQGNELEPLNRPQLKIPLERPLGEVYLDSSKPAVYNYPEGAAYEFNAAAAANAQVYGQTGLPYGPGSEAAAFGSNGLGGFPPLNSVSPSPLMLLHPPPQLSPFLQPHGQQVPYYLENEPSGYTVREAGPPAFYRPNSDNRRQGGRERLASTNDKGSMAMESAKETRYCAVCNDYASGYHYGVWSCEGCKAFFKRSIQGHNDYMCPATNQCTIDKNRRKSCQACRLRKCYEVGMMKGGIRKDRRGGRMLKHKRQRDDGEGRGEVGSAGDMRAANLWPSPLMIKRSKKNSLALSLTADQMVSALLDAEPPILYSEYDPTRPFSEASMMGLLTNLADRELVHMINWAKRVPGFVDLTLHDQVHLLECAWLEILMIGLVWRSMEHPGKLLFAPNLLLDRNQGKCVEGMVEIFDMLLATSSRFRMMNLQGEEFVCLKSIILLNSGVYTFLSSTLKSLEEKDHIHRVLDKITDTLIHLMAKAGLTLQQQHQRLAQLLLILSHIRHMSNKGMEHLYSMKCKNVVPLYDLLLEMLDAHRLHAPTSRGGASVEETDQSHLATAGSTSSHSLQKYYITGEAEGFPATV

Test [11] concerns the target T4, 5-hydroxytryptamine receptor 1A (Homo sapiens, UniProt P08908).
T4 sequence (P08908 whole entry): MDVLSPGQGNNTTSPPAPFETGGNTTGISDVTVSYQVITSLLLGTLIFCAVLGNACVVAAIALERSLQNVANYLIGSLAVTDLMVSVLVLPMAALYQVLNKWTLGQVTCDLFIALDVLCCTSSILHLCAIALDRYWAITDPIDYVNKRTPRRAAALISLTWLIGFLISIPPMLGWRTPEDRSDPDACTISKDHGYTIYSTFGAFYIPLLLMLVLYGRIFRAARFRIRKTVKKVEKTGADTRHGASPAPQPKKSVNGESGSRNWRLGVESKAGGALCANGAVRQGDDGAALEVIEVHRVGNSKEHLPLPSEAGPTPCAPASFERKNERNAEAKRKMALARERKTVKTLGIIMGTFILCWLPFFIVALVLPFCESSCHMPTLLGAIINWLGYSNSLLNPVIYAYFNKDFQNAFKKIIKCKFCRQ
The format is functional, cell-based.

Molecules are shown by their SMILES.
Also: assay procedure not described here.

Chain of Growth hormone secretagogue receptor type 1 (Q92847 whole entry): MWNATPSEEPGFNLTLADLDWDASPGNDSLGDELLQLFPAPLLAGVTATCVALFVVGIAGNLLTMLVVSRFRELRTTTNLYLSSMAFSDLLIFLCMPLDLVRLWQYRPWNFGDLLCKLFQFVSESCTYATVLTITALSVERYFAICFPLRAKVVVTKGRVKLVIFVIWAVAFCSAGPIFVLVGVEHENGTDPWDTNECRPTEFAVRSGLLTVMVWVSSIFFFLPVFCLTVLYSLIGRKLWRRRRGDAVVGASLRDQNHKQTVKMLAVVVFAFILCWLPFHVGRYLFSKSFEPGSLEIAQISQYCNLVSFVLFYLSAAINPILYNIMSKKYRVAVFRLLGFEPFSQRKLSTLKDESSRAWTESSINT
Chain of Beta-2 adrenergic receptor (P07550 whole entry): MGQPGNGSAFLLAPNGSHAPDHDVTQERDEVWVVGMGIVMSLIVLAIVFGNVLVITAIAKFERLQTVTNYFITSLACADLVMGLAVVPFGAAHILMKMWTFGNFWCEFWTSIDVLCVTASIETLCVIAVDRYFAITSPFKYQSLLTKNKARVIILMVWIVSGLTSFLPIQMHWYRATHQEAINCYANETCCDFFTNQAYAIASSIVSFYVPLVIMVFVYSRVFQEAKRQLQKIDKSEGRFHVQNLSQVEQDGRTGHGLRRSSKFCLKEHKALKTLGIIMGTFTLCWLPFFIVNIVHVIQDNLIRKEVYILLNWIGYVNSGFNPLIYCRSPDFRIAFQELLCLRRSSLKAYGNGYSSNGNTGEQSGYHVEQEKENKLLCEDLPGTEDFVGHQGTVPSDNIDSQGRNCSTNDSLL
Chain of Adenosine receptor A2a (P29274 whole entry): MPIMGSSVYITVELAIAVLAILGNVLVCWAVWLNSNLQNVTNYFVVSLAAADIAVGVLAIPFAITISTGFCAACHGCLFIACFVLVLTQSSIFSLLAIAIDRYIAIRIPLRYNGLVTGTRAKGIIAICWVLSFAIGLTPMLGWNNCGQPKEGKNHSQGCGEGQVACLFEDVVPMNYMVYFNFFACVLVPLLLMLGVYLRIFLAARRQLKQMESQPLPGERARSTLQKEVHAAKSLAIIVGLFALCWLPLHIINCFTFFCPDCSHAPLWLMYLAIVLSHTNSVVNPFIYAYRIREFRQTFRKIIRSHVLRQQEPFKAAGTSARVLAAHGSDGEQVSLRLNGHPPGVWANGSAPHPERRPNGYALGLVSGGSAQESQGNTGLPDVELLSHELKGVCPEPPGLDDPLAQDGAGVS
Chain of Voltage-dependent L-type calcium channel subunit alpha-1C (P22002 whole entry): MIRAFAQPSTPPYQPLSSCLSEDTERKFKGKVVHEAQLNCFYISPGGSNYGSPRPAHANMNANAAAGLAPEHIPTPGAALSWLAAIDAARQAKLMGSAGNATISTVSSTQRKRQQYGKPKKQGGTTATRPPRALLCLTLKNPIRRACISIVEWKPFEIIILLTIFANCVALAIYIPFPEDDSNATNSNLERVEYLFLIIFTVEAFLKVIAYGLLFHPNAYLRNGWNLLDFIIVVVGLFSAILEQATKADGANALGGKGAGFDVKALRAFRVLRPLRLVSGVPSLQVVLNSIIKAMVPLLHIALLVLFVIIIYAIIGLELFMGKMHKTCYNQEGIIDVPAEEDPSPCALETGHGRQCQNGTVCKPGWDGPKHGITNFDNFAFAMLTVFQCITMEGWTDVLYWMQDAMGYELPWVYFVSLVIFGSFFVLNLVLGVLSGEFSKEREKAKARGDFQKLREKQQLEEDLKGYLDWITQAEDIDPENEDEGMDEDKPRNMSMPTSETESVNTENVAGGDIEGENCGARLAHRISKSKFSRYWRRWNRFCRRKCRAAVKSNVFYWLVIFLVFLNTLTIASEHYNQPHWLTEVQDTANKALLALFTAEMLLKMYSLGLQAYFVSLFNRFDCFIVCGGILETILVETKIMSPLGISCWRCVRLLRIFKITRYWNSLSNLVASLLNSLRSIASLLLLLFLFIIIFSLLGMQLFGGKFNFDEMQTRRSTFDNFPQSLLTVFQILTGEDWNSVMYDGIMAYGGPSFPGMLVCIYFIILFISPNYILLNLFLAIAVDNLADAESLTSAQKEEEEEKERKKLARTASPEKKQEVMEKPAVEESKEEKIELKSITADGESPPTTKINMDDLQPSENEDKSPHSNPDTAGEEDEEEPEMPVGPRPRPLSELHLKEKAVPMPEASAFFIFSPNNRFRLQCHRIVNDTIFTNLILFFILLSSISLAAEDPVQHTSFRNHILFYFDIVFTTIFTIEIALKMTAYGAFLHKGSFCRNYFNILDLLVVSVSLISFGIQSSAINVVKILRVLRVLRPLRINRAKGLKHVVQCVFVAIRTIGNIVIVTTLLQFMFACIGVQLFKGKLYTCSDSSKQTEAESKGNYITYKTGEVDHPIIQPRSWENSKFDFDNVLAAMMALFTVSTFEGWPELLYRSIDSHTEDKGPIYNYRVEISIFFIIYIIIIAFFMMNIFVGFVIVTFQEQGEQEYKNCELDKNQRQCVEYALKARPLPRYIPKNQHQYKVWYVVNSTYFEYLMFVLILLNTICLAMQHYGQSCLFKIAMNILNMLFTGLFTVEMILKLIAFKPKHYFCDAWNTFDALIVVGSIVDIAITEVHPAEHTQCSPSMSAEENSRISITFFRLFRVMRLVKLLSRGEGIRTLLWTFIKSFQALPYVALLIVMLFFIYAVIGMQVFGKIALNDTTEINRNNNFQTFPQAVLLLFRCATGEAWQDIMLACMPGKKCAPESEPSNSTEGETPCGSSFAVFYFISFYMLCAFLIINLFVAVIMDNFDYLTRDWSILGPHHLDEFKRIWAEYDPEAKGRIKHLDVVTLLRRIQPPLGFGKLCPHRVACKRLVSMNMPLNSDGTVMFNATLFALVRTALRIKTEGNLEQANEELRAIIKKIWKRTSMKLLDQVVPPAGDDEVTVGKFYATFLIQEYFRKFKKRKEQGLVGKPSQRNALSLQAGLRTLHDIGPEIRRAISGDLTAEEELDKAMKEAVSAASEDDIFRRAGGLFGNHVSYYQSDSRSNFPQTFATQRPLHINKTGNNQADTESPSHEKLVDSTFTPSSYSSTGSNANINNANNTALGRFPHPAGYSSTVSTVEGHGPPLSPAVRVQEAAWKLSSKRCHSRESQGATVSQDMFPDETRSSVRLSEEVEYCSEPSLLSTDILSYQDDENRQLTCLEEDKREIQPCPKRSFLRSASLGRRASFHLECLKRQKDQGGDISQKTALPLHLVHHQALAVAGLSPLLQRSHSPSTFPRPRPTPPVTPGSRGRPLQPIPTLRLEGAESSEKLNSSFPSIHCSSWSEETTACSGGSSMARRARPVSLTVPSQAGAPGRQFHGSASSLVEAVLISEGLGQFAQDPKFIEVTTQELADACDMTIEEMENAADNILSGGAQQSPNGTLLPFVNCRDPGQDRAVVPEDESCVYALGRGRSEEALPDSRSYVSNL
Chain of 5-hydroxytryptamine receptor 2B (P41595 whole entry): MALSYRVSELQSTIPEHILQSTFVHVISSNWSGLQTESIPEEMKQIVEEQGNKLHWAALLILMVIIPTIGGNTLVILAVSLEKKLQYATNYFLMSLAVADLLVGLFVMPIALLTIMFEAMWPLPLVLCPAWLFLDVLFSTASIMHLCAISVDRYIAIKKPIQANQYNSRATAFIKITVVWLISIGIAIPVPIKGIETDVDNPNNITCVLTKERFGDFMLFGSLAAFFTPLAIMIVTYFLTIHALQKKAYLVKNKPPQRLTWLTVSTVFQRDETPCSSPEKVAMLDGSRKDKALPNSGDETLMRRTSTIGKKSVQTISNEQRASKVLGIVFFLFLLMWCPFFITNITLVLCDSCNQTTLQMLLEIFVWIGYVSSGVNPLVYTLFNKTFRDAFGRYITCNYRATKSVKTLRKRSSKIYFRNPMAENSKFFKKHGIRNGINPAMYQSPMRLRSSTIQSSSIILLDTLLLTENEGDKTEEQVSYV
Chain of Delta-type opioid receptor (P41143 whole entry): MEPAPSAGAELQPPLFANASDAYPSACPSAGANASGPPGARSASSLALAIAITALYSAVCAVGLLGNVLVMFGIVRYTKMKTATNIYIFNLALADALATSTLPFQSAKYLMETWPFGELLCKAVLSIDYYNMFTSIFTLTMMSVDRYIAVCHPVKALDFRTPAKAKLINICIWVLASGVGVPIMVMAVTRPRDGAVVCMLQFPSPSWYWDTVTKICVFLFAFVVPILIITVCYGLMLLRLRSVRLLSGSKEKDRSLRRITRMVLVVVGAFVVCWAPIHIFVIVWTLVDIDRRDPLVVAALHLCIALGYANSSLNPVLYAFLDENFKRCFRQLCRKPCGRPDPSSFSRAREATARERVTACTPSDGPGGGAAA

Take `O=C1c2cccc3c2[C@H](CCC3)CN1[C@@H]1CN2CCC1CC2` [PALONOSETRON]: the AC50 in [1], in test [2], in [3], in [4], in test [5] and in [6] was over 30 µM throughout. Also, the AC50 in test [7], in test [8], in [9] and in [10] was over 30 µM throughout.
Consider `Cc1cccc(C)c1NC(=O)CC12CCCN1CCC2` [PILSICAINIDE], for which the concentration at half-maximal activity (AC50) in test [1], in test [2], in test [3], in [4], in test [5] and in [6] was over 30 µM throughout. Also, the AC50 in test [7], in [8], in [9] and in test [10] was over 30 µM in each case.
For the molecule `CC(C)(Oc1ccc(CCNC(=O)c2ccc(Cl)cc2)cc1)C(=O)O` [BEZAFIBRATE], the half-maximal activity concentration (AC50) in test [1], in test [3], in test [4], in [5], in [6] and in test [7] was over 10 µM each time. In addition, the AC50 is over 10 µM in test [8], over 30 µM in test [9], over 30 µM in [11] and over 10 µM in [10].
Take `CCOC(=O)c1c(CSc2ccccc2)n(C)c2cc(Br)c(O)c(CN(C)C)c12` [UMIFENOVIR]: the half-maximal activity concentration (AC50) in [1], in test [2], in test [3], in test [4], in test [5] and in [6] was over 30 µM throughout. Besides, the concentration at half-maximal activity (AC50) was over 30 µM in test [7], 23 µM in [8], over 30 µM in test [9] and over 30 µM in [10].
Turning to `C[C@]12C=CC(=O)C=C1CC[C@@H]1[C@@H]2CC[C@]2(C)OC(=O)CC[C@@H]12` [TESTOLACTONE], the half-maximal activity concentration (AC50) was over 10 µM in test [1]; over 10 µM in test [3]; over 10 µM in test [4]; over 10 µM in test [5]; over 10 µM in test [6]; over 30 µM in [7]. Besides, the AC50 in [8] was over 10 µM; in [9], over 30 µM; in test [11], over 10 µM; in test [10], over 10 µM.
Turning to `COc1ccc([C@@H]2CC(=O)c3c(O)cc(O)cc3O2)cc1O` [HESPERETIN], the AC50 in [1], in test [3], in [4], in test [5], in test [6] and in test [7] was over 10 µM in each case. Further, the half-maximal activity concentration (AC50) is over 10 µM in test [8], over 30 µM in test [9], over 10 µM in test [11] and over 10 µM in test [10].
Take `O=C1c2ccccc2C(=O)C1c1ccccc1` [PHENINDIONE]: the concentration at half-maximal activity (AC50) in test [1] was over 10 µM; in test [3], over 10 µM; in test [4] it was over 10 µM; in [5] it was over 10 µM; in test [6], over 10 µM; in test [7], 18 µM. Besides, the concentration at half-maximal activity (AC50) is over 10 µM in test [8], over 30 µM in test [9], over 30 µM in test [11] and over 10 µM in test [10].
For `CC1=C(C(=O)OC(C)C)C(c2cccc([N+](=O)[O-])c2)C(C(=O)OC2CN(C(c3ccccc3)c3ccccc3)C2)=C(N)N1` (stereo not given) [AZELNIDIPINE], the half-maximal activity concentration (AC50) in test [1] was 0.092 µM; in [2], over 30 µM; in [3], over 30 µM; in test [4], over 30 µM; in [5], over 30 µM; in test [6], over 30 µM. Also, the AC50 was over 30 µM in [7], over 30 µM in [8], over 30 µM in test [9] and over 3 µM in [10].
As to `CN[C@]1(c2ccccc2Cl)CCCCC1=O` [ESKETAMINE], the concentration at half-maximal activity (AC50) in test [1] was over 30 µM; in test [2], over 30 µM; in [3], over 30 µM; in [4] it was 0.79 µM; in [5], over 30 µM; in test [6], over 30 µM. The half-maximal activity concentration (AC50) in test [7], in test [8], in test [9] and in test [10] was over 30 µM in each case.
Turning to `CCC[C@@H]1C[C@@H](C(=O)N[C@@H]([C@H]2O[C@H](SC)[C@H](O)[C@@H](O)[C@H]2O)[C@@H](C)O)N(C)C1` [LINCOMYCIN], the concentration at half-maximal activity (AC50) in test [1] is over 10 µM; in test [3], over 10 µM; in [4], over 10 µM; in test [5], over 10 µM; in test [6] it was over 10 µM; in test [7] it was over 30 µM. Moreover, the AC50 in test [8] is over 10 µM; in test [9] it was over 30 µM; in [11], over 10 µM; in test [10] it was over 10 µM.
As for `C/C=C(/C(=C/C)c1ccc(O)cc1)c1ccc(O)cc1` [DIENESTROL], the AC50 in test [1], in test [3], in test [4], in test [5], in [6] and in test [7] was over 10 µM throughout. In addition, the concentration at half-maximal activity (AC50) is over 30 µM in test [8], 21 µM in [9], over 10 µM in test [11] and 0.0035 µM in test [10].
In the case of `O=C(O)c1cccnc1Nc1cccc(C(F)(F)F)c1` [NIFLUMIC ACID], the half-maximal activity concentration (AC50) in test [1], in [3], in [4], in test [5], in test [6] and in test [7] was over 10 µM throughout. Also, the AC50 in test [8] is over 10 µM; in test [9] it was over 30 µM; in [11], over 10 µM; in test [10] it was over 10 µM.
With `CN(C)Cc1nnc2n1-c1ccc(Cl)cc1C(c1ccccc1)=NC2` [ADINAZOLAM], the AC50 in test [1], in [3], in [4], in test [5], in test [6] and in [7] was over 10 µM throughout. In addition, the AC50 is over 10 µM in test [8], over 30 µM in test [9], over 10 µM in [11] and over 10 µM in [10].
Turning to `CCOC(=O)C1=C(C)NC(C)=C(C(=O)OCC)C1c1ccccc1/C=C/C(=O)OC(C)(C)C` [LACIDIPINE], the concentration at half-maximal activity (AC50) in test [1] was 0.32 µM; in test [2] it was over 30 µM; in test [3] it was over 30 µM; in test [4], over 30 µM; in test [5], over 30 µM; in [6], over 30 µM. In addition, the concentration at half-maximal activity (AC50) in [7], in [8], in test [9] and in [10] was over 30 µM throughout.
